According to patent publication US9913816B2, “Method for applying metformin and sodium butyrate in K-ras mutation cancer treatment” (Johnpro Biotech Inc., priority 2013, dated 2018):

Tested on: HCT116 cells
Conditions: 72 hours; final concentration 0.75 mM sodium butyrate, 2 mM metformin, alone or both in combination; FIG. 1
Experimental: The human colon cancer cell HCT116 (cell line with K-ras mutation) is cultured in the McCoy's 5A with 10% fetal bovine serum. When the HCT116 cells are cultured to the appropriate number, then the adherent HCT116 cells are suspended, and 2.5×10^5 HCT116 cells per well are seeded in a 6-wells dish. After incubated for 12 hours, sodium butyrate with a final concentration of 0.75 mM, metformin with a final concentration of 2 mM, and the pharmaceutical composition with final concentration of […] are respectively added to the 6-wells dish as above mentioned.
In this embodiment, the final concentration as mentioned means the concentration of respective substances after added in the medium for cell culture, and therefore the medium respectively contains 0.75 mM sodium butyrate, 2 mM metformin, or 0.75 mM sodium butyrate and 2 mM metformin.
After respectably added the above compounds to HCT116 cells, the 6-well dish is incubated in an incubator of 37° C. for 72 hours. After that, the medium and compounds in each well are sequentially removed, and each well is washed by Phosphate Buffered Saline (PBS), then the HCT116 cells are harvested, by treating trypsin-EDTA, for apoptosis analysis.
The apoptosis analysis is based on the Annexin V apoptosis detection kit (BD Pharmingen) for analysis the exposure of phosphatidylserine, and the protocol follows the accompanying manual. In brief, the treated HCT116 cells are washed three times with PBS, and then immediately stained with Annexin V/Propidium Iodide (PI). 1% fetal bovine serum albumin (BSA) is first added to the treated cells. After subsequently added 222.5 μl of binding buffer, 10 μl of PI and 2.5 μl of Annexin V-FITC are directly then added to stain the cells, followed by immediate incubation for 10 minutes at low temperature in the dark. The percentage of the apoptosis is calculated by the flow cytometry and FACSCalibur, the analysis software thereof.

In the case of `CN(C)C(=N)N=C(N)N` [metformin], the “apoptotic rate of HCT116 cells” value is reported as “about 20%” and the “improvement of apoptotic rate compared to the control group” value is reported as “about 15%”.

In the case of `CCCC(=O)[O-].[Na+]` [sodium butyrate], the “apoptotic rate of HCT116 cells” value is reported as “about 20%” and the “improvement of apoptotic rate compared to the control group” value is reported as “about 15%”.
